According to patent publication US20080153792A1, “Drug Identification and Treatment Method” (priority 2006, published 2008):
Where two headings read alike, the source gives them in different places.

Tests used:
[1] = tested on: NF-κB; experiment: NF-κB-bla THP-1 β-lactamase reporter assay; type: cell-based, human
[2] = tested on: mice, LPS induced lung injury; experiment: lung injury by sublethal LPS to trachea and lungs, BAL cell count; type: in vivo, mouse; conditions: oral gavage 24 h before and 1 h after 100 μg LPS; 48 hours
Protocol: In another assay, the capacity of 16α-bromoepiandrosterone and 3β,16α-dihydroxy-17-oxoandrostane to protect against lung injury induced by exposure to a sublethal amount of LPS in mice was shown. In this assay, the compounds, sterile saline (negative control) or vehicle (vehicle control) were administered to groups of 5 mice by oral gavage at 24 hours before and 1 hour after administration of 100 μg of LPS to the trachea and lungs of animals under light anesthesia. At 48 hours the animals were sacrificed and samples were obtained from the lungs of the animals by bronchiolar alveolar lavage (BAL). The numbers of cells in the BAL fluid were counted, with high numbers of cells showing lung inflammation and damage. In this assay, cells that mediate inflammation and lung damage infiltrate into the lungs in response to the presence of the LPS. In the negative control and vehicle control groups, the BAL fluid contained about 6×10^7 cells/mL. […] Other compounds, e.g., 17α-ethynylandrost-5-ene-3β,7β,17β-triol or 17β-aminoandrost-5-ene-3β-ol, can be characterized in a similar manner.

[3] = metabolic stability in liver microsomes, species not stated; type: in vitro ADME; conditions: compared with androst-5-ene-3β,17β-diol reference compound
Protocol: The protocol was performed as follows. […] (2) Set up samples as follows. […] (4) The internal standard/acetonitrile solution.

[4] = tested on: mice given a lethal amount of LPS; experiment: lethal shock protocol, lethal amount of bacterial LPS; type: in vivo, mouse; conditions: second assay; oral gavage 24 h before and 1 h after LPS
Protocol: Treatment of lethal inflammation/shock. Two compounds, 16α-bromoepiandrosterone (3β-hydroxy-16α-bromoandrostane-17-one) and 3β,16α-dihydroxy-17-oxoandrostane, were used in a lethal shock protocol. In one protocol, 3 mg of 16α-bromoepiandrosterone was administered to one group of animals by oral gavage, while another group received 3 mg of 16α-bromoepiandrosterone by subcutaneous injection. A group of control animals received a placebo control. In this protocol, the 16α-bromoepiandrosterone was administered to mice at 24 hours before and at 1 hour after administration of a lethal amount of bacterial lipopolysaccharide (LPS). By the end of the observation period, 72 hours after LPS administration, none of the vehicle treated placebo control animals had survived, while 65% of animals that received 16α-bromoepiandrosterone by oral administration survived. 50% of the animals that received 16α-bromoepiandrosterone by subcutaneous injection survived. Animals that survived for 72 hours all recovered from the LPS exposure.
In a second assay, 16α-bromoepiandrosterone or 3β,16α-dihydroxy-17-oxoandrostane was administered to mice by oral gavage at 24 hours before and 1 hour after administration of a lethal amount of LPS. A vehicle treated group of animals was used as the placebo control.

[5] = tested on: CD1 male mice, carrageenan-λ induced pleurisy; experiment: carrageenan-λ induced lung (pleural cavity) inflammation in mice; type: in vivo, mouse; conditions: for number of neutrophils relative to untreated carrageenan-λ control (100%): 4 h after carrageenan
[6] = tested on: human peripheral blood mononuclear cells (PBMC); experiment: human mixed lymphocyte reaction (MLR); type: cell-based; conditions: either 300 nM or 30 nM; 6 days; p>0.05
Protocol: Human mixed lymphocyte reaction (MLR). The capacity of 3β,16α-dihydroxy-17-oxoandrostane, 3β,17β-dihydroxy-16-oxoandrostane, 17α-ethynylandrost-5-ene-3β,7β,17β-triol, and 17β-aminoandrost-5-ene-3β-ol to affect antigen specific stimulation in which human T lymphocytes respond to a specific foreign antigen (major histocompatibility complex).
Blood samples were obtained from 3 (2 males, […]) fasting, healthy human volunteers of 23-31 years old. […] The subjects were bled between […] to limit possible fluctuations in the circulating levels of hormones or cytokines that could have influenced the in vitro responses of their lymphocytes. Peripheral blood mononuclear cells (PBMC) were isolated by centrifugation on Ficoll-Hypaque (density 1.077, Biochrom AG, Berlin, Germany) gradients and resuspended in culture medium (RPMI 1640 supplemented with 2 mM L-glutamine, penicillin (100 U/mL) and streptomycin ([…]) (Invitrogen s.rl., Milan, Italy). Autologous (responder) inactivated plasma was used at 10%. Five hundred thousand responder PBMC (PBMCr) and 500,000 allogeneic irradiated (30 Gy) stimulator PBMC (PBMCs) were mixed at a ratio of 1:1 in 200 μL medium and cultured for 6 days in flat bottom 96 well plates (Nunc, Roskilde, Denmark) at a concentration of 300 nM or 30 nM for each of the 4 compounds. The compounds were dissolved in ethanol and then diluted to the desired concentration with culture medium leading to a final solution containing 0.01% of ethanol. This vehicle was used as control. Controls also included PBMCr and PBMCs cultured separately. During the last 8 hours of the culture period the PBMC were pulsed with 1 μCi/well [^3H] thymidine (Amersham, Milan, Italy). The cells were then harvested and radioactivity incorporation measured with a beta cell counter. The mean cpm of quadruplicate wells was calculated. Proliferation of T cells was expressed as a stimulation index: SI=cpm (PMBCs xPBMCr)/cpm (PBMCr)+cpm (PBMCs). Statistical analysis was performed using the Student's t test. The cpm obtained from quadruplicate of each test compound were compared to proliferative responses obtained in control PBMCr and PBMCs cultured in the presence of the vehicle. Differences were considered significant at p<0.05.

[7] = tested on: γ-interferon production by human whole blood; experiment: γ-interferon production in human whole blood exposed to LPS; type: cell-based; conditions: LPS 24 hours; 16α-bromoepiandrosterone at 100 ng/mL
Protocol: Anti-inflammation activity in human cells in vitro. […] The amount of γ-interferon was measured in the growth medium when the cells had been incubated in the presence of LPS for 24 hours.

[8] = tested on: bone marrow-derived mast cells (BMMC); experiment: mast cell stimulus-coupled degranulation (glucuronidase release); type: cell-based, mouse
Protocol: In another protocol, a population of mast cells was cultivated from murine bone marrow as follows. Briefly, bone marrows from Balb/C mice were flushed from the femur using PBS and a 27 g needle. The cells were cultured in a mixture of ⅔ RPMI-1640 with 19% FBS and cells that secreted IL-3. The bone marrow cells were allowed to differentiate for 18-25 days in the IL-3-containing mixture before being used for experiments. Bone marrow cells cultured in this manner have a phenotype similar to mucosal mast cells and are referred to as bone marrow-derived mast cells (BMMC).
The homogeneity of the in vitro propagated mast cells was checked by conventional flow cytometry techniques and staining for cell-type specific markers. Between days 14 and 21 of propagation, mature mast cells were harvested and prepared for the test cultures. The objective was to assess of the effect of compounds such as dehydroepiandrosterone on mast cell stimulus-coupled degranulation. Prepared mast cells were dispensed into test culture wells at a density of 1×10^7 cells/mL. In control cultures, mast cells were induced to degranulate after cross linking of IgE receptors with IgE antigen-antibody complexes. […] There was no detectable degranulation of mast cells as measured by release of […] from cytosolic storage granules of the cells in the absence of the stimulus. […]

[9] = tested on: BALB/C mice, TNP-OVA sensitized; experiment: reporter antigen popliteal lymph node (PLN) assay; type: in vivo, mouse; conditions: 5 μg/day by subcutaneous injection; day 5
Excerpt: Analysis of immune suppression. Glucocorticoid steroids such as dexamethasone or hydrocortisone are typically immune suppressive and have significant toxicities associated with their use. Immune suppression was examined in a reporter antigen popliteal lymph node assay in mice essentially as previously described (C. Goebel et al., Inflamm. Res., 45(Suppl. 2):S85-S90, 1996; R. Pieters et al., Environmental Health Perspectives 107(Suppl. 5):673-677,1999). […] In this protocol, the vehicle was 0.1% carboxymethylcellulose, 0.9% saline, 2% tween 80 and 0.05% phenol, which contained 17α-ethynylandrost-5-ene-3β,7β,17β-triol in suspension in drug treated animals. Assessment of activity included (1) measuring suppression of numbers of total lymphocytes, antigen specific IgM, IgG1 and IgG2a antibody secreting cells (ASC) (ELISPOT assay) in popliteal lymph node cells; (2) analysis of cell surface marker (CD4, CD8, CD19, F480, CD80, CD86) expression by flow cytometry of living cells in suspension; and (3) IL-4, TNFα and IFNγ production by lymphocytes in vitro (ELISA).
Groups (n=5 per group) of specific pathogen free BALB/C mice were used. The Positive control group was treated with vehicle (oral gavage) and 5 μg/day dexamethasone by subcutaneous injection to induce immune suppression. Vehicle control animals (negative control) were treated with vehicle alone (oral gavage). One group of animals was treated with 17α-ethynylandrost-5-ene-3β,7β,17β-triol at 0.1 mg/day by oral gavage. Another group was treated with 1 mg/day of 17α-ethynylandrost-5-ene-3β,7β,17β-triol was administered to the animals oral gavage. The results were analyzed by two-tailed Student's t-test with equal variance. The animals were injected in the right hind footpad with 50 μL of freshly prepared sensitizing dose of TNP-OVA. Dexamethasone (decadron phosphate injection; dexamethasone sodium phosphate) was administered by subcutaneous injection into the nape of the neck daily, immediately following sensitization with TNP-OVA. 17α-Ethynylandrost-5-ene-3β,7β,17β-triol was given immediately afterwards by gavage. Five days after injection of TNP-OVA, blood was drawn by orbital puncture, and the mice were euthanized by cervical dislocation and popliteal lymph nodes were removed and separated from adherent fatty tissue. Single cell suspensions were prepared, resuspended in 1 mL PBS-BSA (1%) and counted. Cell numbers, IL-4, IL-5 and IFNγ were measured.

[10] = tested on: BALB/c mice, OVA sensitized and challenged; experiment: ovalbumin (OVA) sensitized mouse model of asthma; type: in vivo; conditions: for IL-13: s.c. once daily, dexamethasone 5 mg/kg, compound 1 mg/mouse
Protocol: BALB/c mice were sensitized by intraperitoneal injection with OVA (in alum adjuvant) on days 1, and 12. Airways were challenged with OVA on days 28 and 30 by delivery of OVA to the lung, or with saline. […] The remaining animals were divided into 6 groups (6 mice per group). Groups of the mice were treated once daily by subcutaneous injection as follows. Group 1 vehicle control (0.1% carboxymethyl cellulose, 0.9% saline, 2% tween 80, 0.05% phenol). Group 2 dexamethazone (5 mg/kg). Group 3 3α,16α,17α-trihydroxyandrostane (1 mg/mouse). Three animals in groups 1-3 were sacrificed on day 35 at 1 hr after final treatment and the remaining 3 animals in groups 1-3 were sacrificed on day 38.

[11] = tested on: MG-63 cells; experiment: reversal of glucocorticoid effects in MG-63 osteosarcoma cells; type: cell-based, human; conditions: dexamethasone 30 nM
[12] = tested on: mice treated daily with dexamethasone; experiment: osteoprotegerin levels in dexamethasone treated mice; type: in vivo, mouse; conditions: vehicle and dexamethasone at 10 μg/day for 23 days (positive control group)
Protocol: Osteoprotegerin levels in mice that were treated with vehicle and dexamethasone at 10 μg/day (positive control group) had 3.3 pMol/L osteoprotegerin, while animals treated with vehicle, dexamethasone and 17α-ethynyl-5-androstene-3β,7β,17β-triol at 4 mg/kg/day had 6.4 pMol/L osteoprotegerin (p<0.05).

With C[C@]12CC[C@H](O)CC1CC[C@@H]1[C@@H]2CC[C@]2(C)C(=O)[C@H](O)C[C@@H]12 (stereo partly drawn) [3β,16α-dihydroxy-17-oxoandrostane] the IC50 ([1]; Homo sapiens, THP-1, read-out: IC50 for inhibition of NF-κB activation, after LPS stimulation, 50% of the maximum inhibition the compound can induce, averages of 2-4 assays) was over 10 µM, the “cell counts in the BAL fluid” value [2] was “about 4.4×10^7 cells/mL” and the “metabolism by microsomes” value [3] was “metabolized by microsomes at a rate similar to the androst-5-ene-3β,17β-diol reference compound”. For the same compound, the “survival at 72 hours” value [4] was 50%, the “neutrophils in the pleura / pleural exudate” value ([5]; 0.001 mg dose s.c.) was “inactive” and the “number of neutrophils relative to untreated carrageenan-λ control (100%)” value ([5]; 0.001 mg s.c. 24 h and 1 h before carrageenan-λ) was 97%. For the same compound, the “number of neutrophils relative to untreated carrageenan-λ control (100%)” value ([5]; 0.01 mg s.c. 24 h and 1 h before carrageenan-λ) was 73%, the “number of neutrophils in the pleura” value ([5]; 0.1 mg and 0.01 mg doses s.c.) was “significant reduction” and the “volume of pleural exudate” value ([5]; 0.1 mg dose s.c.) was “significantly reduced”. The “number of neutrophils relative to untreated carrageenan-λ control (100%)” value ([5]; 0.1 mg s.c. 24 h and 1 h before carrageenan-λ) was 73%, the “potency compared with polyclonal anti-TNF-α antibody control” value ([5]; s.c.) was “less potent” and the “immune suppression in the MLR” value [6] was “not appreciably immune suppressive”. The “production of γ-interferon” value [7] was “Reduced production”.

In the case of C[C@]12CC[C@H](O)CC1=CC[C@@H]1[C@@H]2CC[C@]2(C)C(=O)CC[C@@H]12 [dehydroepiandrosterone], the IC50 ([1]; Homo sapiens, THP-1, read-out: IC50, this protocol) is reported as over 10 µM, the inhibition at 100 µM ([8]; Mus musculus, BMMC, 100 μM, 5 to 10 minutes before activation with anti-IgE antigen-antibody complexes) is reported as about 70% and the “degranulation by compound alone” value ([8]; no stimulus) is reported as “no measurable degranulation”.

For C[C@@H]1C[C@H]2[C@@H]3CCC4=CC(=O)C=C[C@]4(C)[C@@]3(F)[C@@H](O)C[C@]2(C)[C@@]1(O)C(=O)CO [dexamethasone, reference compound], the EC50 ([1]; Homo sapiens, THP-1, TNFα stimulation, average of 5 assays, read-out: EC50 for decreasing the effect of TNFα) was 0.00047 µM, the “maximum NF-κB inhibition” value ([1]; this protocol) was 100% and the “average number of lymphocytes in PLNs” value [9] was 2.9×10^6 per lymph node. The IL-13 ([10]; day 35) was 340 pg/mL, the “IL-5 in lung tissue” value ([10]; day 38) was 145 pg/mL and the IL-13 ([10]; day 38) was 390 pg/mL. The “11β-HSD mRNA” value ([11]; compounds at 10 nM in the presence of 30 nM dexamethasone, vehicle control 0.25) was 1.0 units, the IL-8 ([11]; compounds at 10 nM in the presence of 30 nM dexamethasone, vehicle control 0.90) was 0.12 units and the IL-6 ([11]; compounds at 10 nM in the presence of 30 nM dexamethasone, vehicle control 6.2) was 1.3 pg/mL. The osteoprotegerin ([11]; vehicle control 445) was 280 pmol/L and the osteoprotegerin [12] was 3.3 pmol/L.
